The record followed here is the supplement of paper PMC10307832.

Holding throughout (assay): relative viability (nuclei count vs DMSO), 5 days (fraction); higher = more cells survive
Compound in the experiment “Tanzisertib + Navitoclax”: O[C@H]1CC[C@H](Nc2ncc3nc(Nc4c(F)cc(F)cc4F)n([C@H]4CCOC4)c3n2)CC1 [Tanzisertib] + CC1(C)CCC(c2ccc(Cl)cc2)=C(CN2CCN(c3ccc(C(=O)NS(=O)(=O)c4ccc(N[C@H](CCN5CCOCC5)CSc5ccccc5)c(S(=O)(=O)C(F)(F)F)c4)cc3)CC2)C1 [Navitoclax] (partner 0.5 µM)
In short, it runs like this: (§1)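 Medians of duplicate plates are given as relative viability. That measure is the nuclei count in treated wells divided by the count in vehicle wells. Counts were taken on 4× images of lung cancer cell lines in 1536-well plates, 5 days after pin-tool dosing the day after seeding with one drug alone or a fixed anchor-drug dose plus five library-drug doses (not always all listed) in √10 steps.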

Compound in experiment [1]: C[C@@H](N)c1ccc(C(=O)Nc2ccnc3[nH]ccc23)cc1 + Nc1nc2[nH]cc(CCc3ccc(C(=O)N[C@@H](CCC(=O)O)C(=O)O)cc3)c2c(=O)[nH]1 [Pemetrexed] (partner 0.2 µM)
In short, it runs like this:
as §1

Compound in experiment [2]: C[C@@H](N)c1ccc(C(=O)Nc2ccnc3[nH]ccc23)cc1 + C[C@@H](Oc1cc(-c2cnn(C3CCNCC3)c2)cnc1N)c1c(Cl)ccc(F)c1Cl [Crizotinib] (partner 1 µM)
In short, it runs like this: as §1

Compound in experiment [3]: C1CNCCC1C2=CC(=NN2)C3=CC=NC=C3 + Cc1nc(NC(=O)N2CCC[C@H]2C(N)=O)sc1-c1ccnc(C(C)(C)C(F)(F)F)c1 [Alpelisib] (partner 2 µM)
In short, it runs like this: as §1

Turning to UMC-11, the relative viability in the experiment with Tanzisertib + Navitoclax (first compound 0.08 µM) turned out to be 0.33; with Tanzisertib + Navitoclax (first compound 0.253 µM), 0.319; with Tanzisertib + Navitoclax (first compound 0.8 µM), 0.362; in the experiment with Tanzisertib + Navitoclax (first compound 2.53 µM), 0.342; with Tanzisertib + Navitoclax (first compound 8 µM), 0.392; in experiment [1] (first compound 0.04 µM), 0.915. Besides, the relative viability in experiment [1] (first compound 0.1265 µM) came to 0.889; in experiment [1] (first compound 0.4 µM) it was 0.955; in experiment [1] (first compound 1.265 µM) it was 0.764; in experiment [1] (first compound 4 µM), 0.498; in experiment [2] (first compound 0.04 µM) it was 0.714; in experiment [2] (first compound 0.1265 µM) it was 0.615. Further, the relative viability in experiment [2] (first compound 0.4 µM) stood at 0.79; in experiment [2] (first compound 1.265 µM) it was 0.749; in experiment [2] (first compound 4 µM), 0.346; in experiment [3] (first compound 0.08 µM) it was 0.815; in experiment [3] (first compound 0.8 µM) it was 1.22; in experiment [3] (first compound 2.53 µM) it was 0.911. Further, the relative viability in experiment [3] (first compound 8 µM) was determined as 1.03.
